Measurements from US20260000070A1 (priority 2023, published 2026).

Test system: endothelial cells / vascular system of perfused tissue

SMILES: CNCC(O)c1ccc(O)c(O)c1 (centres unmarked) [adrenaline]
- flow rate: decrease
- pressure: increase
